Test system: A375 human melanoma xenografts
Experiment: In vivo therapeutic efficacy in A375 human melanoma xenografts (tumor volume, T/C, TGI), Example 14
Design: species or system human tumor in female BALB/c nude mice
Details: for Tumor volume: mean ± SEM; for T/C / TGI: PG-D21
Experimental: Agents were tested in the A375 human melanoma xenografts. Compound 26 and Compound 141 were administered to BALB/c nude mice bearing A375 tumors from PG-DO and dosed via PO twice a day (BID) or third a day (TIP) or dosed P daily (QD) from PG-D. Dabrafenib was administered to BALB/c nude mice bearing A375 tumors from PG-D1 and dosed via P daily (QD). Compound 26 was dosed at 1.5 mg/kg (QD), 2 mg/kg (TID), 3 mg/kg (BID), 6 mg/kg (QD) and 10 mg/kg (BID) for 21 days. Compound 141 was dosed at 0.75 mg/kg (BID), 1 mg/kg (TID), 1.5 mg/kg (BID), 3 mg/kg (QD) and 5 mg/kg (BID) for 21 days. Dabrafenib was dosed at 100 mg/kg for 21 days. This study was non-GLP.
One hundred and thirty-eight female BALB/c nude Mus Musculus mice procured from Shanghai Lingchang Biological Science and Technology Co., LTD between the ages of six to eight weeks and with body weight between eighteen and twenty-two grams were used for the study. A spare mouse was also procured.
The A375 tumor cells were maintained in vitro in DMEM medium supplemented with 10% fetal bovine serum and 1% Penicillin-Streptomycin at 37° C. in an atmosphere of 5% CO2 in air. The tumor cells were routinely sub-cultured twice weekly. The cells growing in an exponential growth phase were harvested and counted for tumor inoculation.
Each mouse was inoculated subcutaneously at the right flank with A375 cells (5×10^6) in 0.2 mL of PBS supplemented with Matrigel (PBS: Matrigel=1:1) for tumor development. Animals were grouped for efficacy study on day 15 after tumor inoculation when the average tumor volume reached 220 mm^3. The test articles administration and the animal numbers in each group are shown in the above experimental Table 75.
At the time of routine monitoring, the animals were checked daily for any effects of tumor growth and treatments on normal behavior such as mobility, food and water consumption (by looking only), body weight gain/loss (body weights were measured twice weekly), eye/hair matting and any other abnormal effect as stated in the protocol. Death and observed clinical signs were recorded on the basis of the numbers of animals within each subset.
Prior to the onset of drug treatment, mice were measured for tumor size in two dimensions using a caliper, and the tumor volume (mm^3) was calculated using formula V=0.5 a×b^2 where a and b are the long and short diameters of the tumor in mm, respectively. Mice were randomized into different treatment groups based on the tumor volume.
The major endpoint was to see if the tumor growth could be delayed or mice could be cured. The tumor size was then used for calculations of T/C value. The T/C value (in percent) is an indication of antitumor effectiveness; T and C are the mean volumes of the treated and control groups, respectively on specified day.
TGI was calculated for each group using the formula: TGI (%)=[1−(Ti−T0)/(Ci−C0)]×100; Ti is the average tumor volume of a treatment group on a given day, T0 is the average tumor volume of the treatment group on the day of treatment start, Ci is the average tumor volume of the vehicle control group on the same day with Ti, and C0 is the average tumor volume of the vehicle group on the day of treatment start.
A one-way ANOVA followed by Dunnett's multiple comparison test was performed to compare tumor volume among vehicle group (Group 1) and treatment groups (Group 2-Group 12). All data were analyzed using GraphPad Prism, ns indicates p>0.05, * indicates p<0.05, ** indicates p<0.01, *** indicates p<0.001 and **** indicates p<0.0001.
Tumor growth inhibition of Compound 26, Compound 141 and dabrafenib in the treatment of female BALB/c nude mice bearing A375 xenografts was calculated based on tumor volume measured on […]. TGI and T/C were calculated respectively and the data are detailed in Table 82.

## CCN(C)S(=O)(=O)Nc1ccc(F)c(Oc2ccc3ncn(C4CC5(CCN(C6CC7(C6)CN(c6cc8c(cc6F)c(N6CCC(=O)NC6=O)nn8C)C7)CC5)C4)c(=O)c3c2)c1C#N (centres unmarked) [Compound 141, 6-[2-cyano-3-[[ethyl(methyl)sulfamoyl]amino]-6-fluoro-phenoxy]-3-[7-[2-[3-(2,4-dioxohexahydropyrimidin-1-yl)-5-fluoro-1-methyl-indazol-6-yl]-2-azaspiro[3.3]heptan-6-yl]-7-azaspiro[3.5]nonan-2-yl]-4-oxo-quinazoline]
0.75 mg/kg p.o. BID x 21 days, day 0
  Tumor volume: 220 ± 16 mm^3
0.75 mg/kg p.o. BID x 21 days, day 4
  Tumor volume: 279 ± 20 mm^3
0.75 mg/kg p.o. BID x 21 days, day 7
  Tumor volume: 299 ± 25 mm^3
0.75 mg/kg p.o. BID x 21 days, day 11
  Tumor volume: 305 ± 27 mm^3
0.75 mg/kg p.o. BID x 21 days, day 14
  Tumor volume: 333 ± 29 mm^3
0.75 mg/kg p.o. BID x 21 days, day 18
  Tumor volume: 465 ± 48 mm^3
0.75 mg/kg p.o. BID x 21 days, day 21
  Tumor volume: 634 ± 67 mm^3
0.75 mg/kg p.o. BID x 21 days, day 25 (dosing-free regrowth)
  Tumor volume: 1230 ± 98 mm^3
0.75 mg/kg p.o. BID x 21 days, day 28 (dosing-free regrowth)
  Tumor volume: 1536 ± 103 mm^3
0.75 mg/kg p.o. BID x 21 days, day 32 (dosing-free regrowth)
  Tumor volume: 1821 ± 140 mm^3
0.75 mg/kg p.o. BID x 21 days, day 35 (dosing-free regrowth)
  Tumor volume: 2230 ± 178 mm^3
0.75 mg/kg p.o. BID x 21 days, day 39 (dosing-free regrowth)
  Tumor volume: 2413 ± 86 mm^3
0.75 mg/kg p.o. BID x 21 days, day 42 (dosing-free regrowth)
  Tumor volume: 2786 ± 127 mm^3
0.75 mg/kg p.o. BID x 21 days, day 46 (dosing-free regrowth)
  Tumor volume: 3213 ± 101 mm^3
0.75 mg/kg p.o. BID × 21 days
  Tumor Size on PG-D21 (Mean ± SEM): 634 ± 67 mm^3
  T/C: 33.7%
  TGI: 75.1%
1 mg/kg p.o. TID x 21 days, day 0
  Tumor volume: 220 ± 16 mm^3
1 mg/kg p.o. TID x 21 days, day 4
  Tumor volume: 199 ± 14 mm^3
1 mg/kg p.o. TID x 21 days, day 7
  Tumor volume: 174 ± 12 mm^3
1 mg/kg p.o. TID x 21 days, day 11
  Tumor volume: 131 ± 11 mm^3
1 mg/kg p.o. TID x 21 days, day 14
  Tumor volume: 99 ± 11 mm^3
1 mg/kg p.o. TID x 21 days, day 18
  Tumor volume: 117 ± 18 mm^3
1 mg/kg p.o. TID x 21 days, day 21
  Tumor volume: 138 ± 22 mm^3
1 mg/kg p.o. TID x 21 days, day 25 (dosing-free regrowth)
  Tumor volume: 303 ± 94 mm^3
1 mg/kg p.o. TID x 21 days, day 28 (dosing-free regrowth)
  Tumor volume: 492 ± 132 mm^3
1 mg/kg p.o. TID x 21 days, day 32 (dosing-free regrowth)
  Tumor volume: 718 ± 197 mm^3
1 mg/kg p.o. TID x 21 days, day 35 (dosing-free regrowth)
  Tumor volume: 933 ± 232 mm^3
1 mg/kg p.o. TID x 21 days, day 39 (dosing-free regrowth)
  Tumor volume: 1233 ± 240 mm^3
1 mg/kg p.o. TID x 21 days, day 42 (dosing-free regrowth)
  Tumor volume: 1591 ± 302 mm^3
1 mg/kg p.o. TID x 21 days, day 46 (dosing-free regrowth)
  Tumor volume: 2017 ± 443 mm^3
1 mg/kg p.o. TID x 21 days, day 49 (dosing-free regrowth)
  Tumor volume: 2117 ± 505 mm^3
1 mg/kg p.o. TID x 21 days, day 53 (dosing-free regrowth)
  Tumor volume: 2166 ± 495 mm^3
1 mg/kg p.o. TID x 21 days, day 56 (dosing-free regrowth)
  Tumor volume: 2162 ± 633 mm^3
1 mg/kg p.o. TID × 21 days
  Tumor Size on PG-D21 (Mean ± SEM): 138 ± 22 mm^3
  T/C: 7.3%
  TGI: 104.9%
1.5 mg/kg p.o. BID x 21 days, day 0
  Tumor volume: 220 ± 15 mm^3
1.5 mg/kg p.o. BID x 21 days, day 4
  Tumor volume: 245 ± 18 mm^3
1.5 mg/kg p.o. BID x 21 days, day 7
  Tumor volume: 213 ± 17 mm^3
1.5 mg/kg p.o. BID x 21 days, day 11
  Tumor volume: 180 ± 13 mm^3
1.5 mg/kg p.o. BID x 21 days, day 14
  Tumor volume: 159 ± 13 mm^3
1.5 mg/kg p.o. BID x 21 days, day 18
  Tumor volume: 166 ± 14 mm^3
1.5 mg/kg p.o. BID x 21 days, day 21
  Tumor volume: 208 ± 21 mm^3
1.5 mg/kg p.o. BID x 21 days, day 25 (dosing-free regrowth)
  Tumor volume: 476 ± 63 mm^3
1.5 mg/kg p.o. BID x 21 days, day 28 (dosing-free regrowth)
  Tumor volume: 773 ± 76 mm^3
1.5 mg/kg p.o. BID x 21 days, day 32 (dosing-free regrowth)
  Tumor volume: 946 ± 93 mm^3

— patent US20260297060A1, “COMPOUNDS FOR THE DEGRADATION OF MUTANT BRAF” (C4 THERAPEUTICS, INC., priority 2023, published 2026)
